ChEMBL document CHEMBL3991601, “The target landscape of clinical kinase drugs” (Science, 2017)
The source made the active and inactive calls.

Columns and labels:
[1] = target: Bone morphogenetic protein receptor type-1B (Homo sapiens, UniProt O00238)
[2] = target: T1, Rab-like protein 3 (Homo sapiens, UniProt Q5HYI8)
T1 sequence (Q5HYI8 whole entry): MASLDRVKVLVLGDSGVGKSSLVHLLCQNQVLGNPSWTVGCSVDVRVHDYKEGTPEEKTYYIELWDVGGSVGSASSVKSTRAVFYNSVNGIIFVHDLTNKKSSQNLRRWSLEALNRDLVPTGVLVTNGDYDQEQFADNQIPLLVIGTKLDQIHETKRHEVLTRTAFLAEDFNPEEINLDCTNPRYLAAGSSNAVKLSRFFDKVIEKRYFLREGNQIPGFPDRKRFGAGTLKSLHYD

[3] = target: Ribosomal protein S6 kinase beta-1 (Homo sapiens, UniProt P23443)
Chain of Ribosomal protein S6 kinase beta-1 (P23443 whole entry): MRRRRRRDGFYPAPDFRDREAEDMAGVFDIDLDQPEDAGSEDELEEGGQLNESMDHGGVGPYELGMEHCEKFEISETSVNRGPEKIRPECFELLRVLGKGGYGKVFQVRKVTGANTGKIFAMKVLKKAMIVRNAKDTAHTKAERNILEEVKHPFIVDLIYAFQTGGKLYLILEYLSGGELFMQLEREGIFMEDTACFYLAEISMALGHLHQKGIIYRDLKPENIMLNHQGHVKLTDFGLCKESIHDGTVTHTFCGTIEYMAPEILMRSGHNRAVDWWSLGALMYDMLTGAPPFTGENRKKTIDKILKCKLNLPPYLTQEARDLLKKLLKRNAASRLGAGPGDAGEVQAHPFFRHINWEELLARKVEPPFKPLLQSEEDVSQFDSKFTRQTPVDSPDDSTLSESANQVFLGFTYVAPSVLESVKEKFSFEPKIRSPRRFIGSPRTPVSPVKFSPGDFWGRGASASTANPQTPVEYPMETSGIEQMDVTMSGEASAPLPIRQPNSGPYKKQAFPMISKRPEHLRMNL

[4] = target: T2, ATP-dependent RNA helicase DDX1 (Homo sapiens, UniProt Q92499)
T2 sequence (Q92499 whole entry): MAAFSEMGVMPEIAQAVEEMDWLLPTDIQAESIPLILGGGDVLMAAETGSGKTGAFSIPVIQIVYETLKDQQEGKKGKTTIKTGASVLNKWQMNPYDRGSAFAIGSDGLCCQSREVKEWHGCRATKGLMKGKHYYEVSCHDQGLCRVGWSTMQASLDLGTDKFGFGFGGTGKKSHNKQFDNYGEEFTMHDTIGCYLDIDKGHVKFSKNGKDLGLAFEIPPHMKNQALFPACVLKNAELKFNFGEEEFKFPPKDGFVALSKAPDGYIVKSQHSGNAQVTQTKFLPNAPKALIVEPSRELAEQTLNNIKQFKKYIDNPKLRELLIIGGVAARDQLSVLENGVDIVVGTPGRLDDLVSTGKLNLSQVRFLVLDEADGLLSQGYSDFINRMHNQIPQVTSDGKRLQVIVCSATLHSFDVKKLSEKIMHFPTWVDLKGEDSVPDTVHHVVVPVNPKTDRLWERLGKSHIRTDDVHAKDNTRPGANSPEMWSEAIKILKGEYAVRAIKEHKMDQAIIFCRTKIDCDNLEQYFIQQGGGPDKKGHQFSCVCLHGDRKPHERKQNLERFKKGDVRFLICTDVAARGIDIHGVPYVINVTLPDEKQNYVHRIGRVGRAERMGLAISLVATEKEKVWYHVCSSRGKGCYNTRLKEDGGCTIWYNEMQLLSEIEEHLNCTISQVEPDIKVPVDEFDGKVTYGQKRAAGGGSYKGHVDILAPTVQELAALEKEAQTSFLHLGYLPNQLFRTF

[5] = target: Myosin-14 (Homo sapiens, UniProt Q7Z406)
Chain of Myosin-14 (Q7Z406 whole entry): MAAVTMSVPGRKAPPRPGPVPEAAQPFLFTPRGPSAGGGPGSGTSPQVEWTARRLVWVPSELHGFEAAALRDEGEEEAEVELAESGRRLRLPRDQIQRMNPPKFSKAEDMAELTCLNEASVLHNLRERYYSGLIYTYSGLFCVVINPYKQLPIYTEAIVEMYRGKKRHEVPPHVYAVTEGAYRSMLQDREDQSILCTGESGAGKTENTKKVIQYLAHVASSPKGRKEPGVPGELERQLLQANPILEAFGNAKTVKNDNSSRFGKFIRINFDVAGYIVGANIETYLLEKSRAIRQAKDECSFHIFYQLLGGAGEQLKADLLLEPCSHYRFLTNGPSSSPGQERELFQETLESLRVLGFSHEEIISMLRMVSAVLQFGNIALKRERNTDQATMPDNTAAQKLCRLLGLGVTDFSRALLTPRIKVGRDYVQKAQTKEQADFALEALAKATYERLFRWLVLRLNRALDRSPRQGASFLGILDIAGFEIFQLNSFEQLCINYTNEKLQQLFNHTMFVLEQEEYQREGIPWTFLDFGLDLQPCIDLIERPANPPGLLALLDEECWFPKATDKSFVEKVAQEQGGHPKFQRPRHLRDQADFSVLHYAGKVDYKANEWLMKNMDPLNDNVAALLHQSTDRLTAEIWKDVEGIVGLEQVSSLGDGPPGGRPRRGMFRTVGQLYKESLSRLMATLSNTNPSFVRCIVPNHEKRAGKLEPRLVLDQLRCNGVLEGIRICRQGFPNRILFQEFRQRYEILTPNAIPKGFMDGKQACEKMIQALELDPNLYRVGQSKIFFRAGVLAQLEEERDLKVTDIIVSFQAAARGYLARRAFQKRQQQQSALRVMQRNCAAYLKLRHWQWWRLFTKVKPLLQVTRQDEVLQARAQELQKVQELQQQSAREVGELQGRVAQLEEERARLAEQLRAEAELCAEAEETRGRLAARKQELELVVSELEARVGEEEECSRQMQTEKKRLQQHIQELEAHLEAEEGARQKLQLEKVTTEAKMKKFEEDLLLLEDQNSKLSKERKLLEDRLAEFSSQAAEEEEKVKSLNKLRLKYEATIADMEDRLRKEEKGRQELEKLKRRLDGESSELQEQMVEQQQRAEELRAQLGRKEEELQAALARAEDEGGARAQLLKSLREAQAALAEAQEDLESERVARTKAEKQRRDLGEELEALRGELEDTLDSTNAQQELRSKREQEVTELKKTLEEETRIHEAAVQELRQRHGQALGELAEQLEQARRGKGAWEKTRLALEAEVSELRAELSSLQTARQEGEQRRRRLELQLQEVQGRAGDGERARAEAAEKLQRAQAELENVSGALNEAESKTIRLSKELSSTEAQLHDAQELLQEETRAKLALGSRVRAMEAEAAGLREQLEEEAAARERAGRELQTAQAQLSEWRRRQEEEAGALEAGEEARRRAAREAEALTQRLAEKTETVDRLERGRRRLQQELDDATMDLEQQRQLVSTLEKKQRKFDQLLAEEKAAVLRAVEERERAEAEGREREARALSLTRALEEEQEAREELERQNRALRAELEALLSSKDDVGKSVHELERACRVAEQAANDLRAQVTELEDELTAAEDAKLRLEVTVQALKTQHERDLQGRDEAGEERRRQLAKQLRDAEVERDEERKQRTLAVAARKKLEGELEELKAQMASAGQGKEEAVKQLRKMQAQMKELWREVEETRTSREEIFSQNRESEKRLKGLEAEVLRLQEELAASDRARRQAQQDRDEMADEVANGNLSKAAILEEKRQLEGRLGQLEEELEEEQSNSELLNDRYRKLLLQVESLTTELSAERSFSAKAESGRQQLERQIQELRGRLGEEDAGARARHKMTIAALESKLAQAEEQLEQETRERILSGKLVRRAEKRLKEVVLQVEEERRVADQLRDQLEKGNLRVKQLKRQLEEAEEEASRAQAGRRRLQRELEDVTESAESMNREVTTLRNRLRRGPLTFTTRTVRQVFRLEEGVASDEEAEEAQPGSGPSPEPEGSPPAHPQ

[6] = target: Ephrin type-A receptor 5 (Homo sapiens, UniProt P54756)
Chain of Ephrin type-A receptor 5 (P54756 whole entry): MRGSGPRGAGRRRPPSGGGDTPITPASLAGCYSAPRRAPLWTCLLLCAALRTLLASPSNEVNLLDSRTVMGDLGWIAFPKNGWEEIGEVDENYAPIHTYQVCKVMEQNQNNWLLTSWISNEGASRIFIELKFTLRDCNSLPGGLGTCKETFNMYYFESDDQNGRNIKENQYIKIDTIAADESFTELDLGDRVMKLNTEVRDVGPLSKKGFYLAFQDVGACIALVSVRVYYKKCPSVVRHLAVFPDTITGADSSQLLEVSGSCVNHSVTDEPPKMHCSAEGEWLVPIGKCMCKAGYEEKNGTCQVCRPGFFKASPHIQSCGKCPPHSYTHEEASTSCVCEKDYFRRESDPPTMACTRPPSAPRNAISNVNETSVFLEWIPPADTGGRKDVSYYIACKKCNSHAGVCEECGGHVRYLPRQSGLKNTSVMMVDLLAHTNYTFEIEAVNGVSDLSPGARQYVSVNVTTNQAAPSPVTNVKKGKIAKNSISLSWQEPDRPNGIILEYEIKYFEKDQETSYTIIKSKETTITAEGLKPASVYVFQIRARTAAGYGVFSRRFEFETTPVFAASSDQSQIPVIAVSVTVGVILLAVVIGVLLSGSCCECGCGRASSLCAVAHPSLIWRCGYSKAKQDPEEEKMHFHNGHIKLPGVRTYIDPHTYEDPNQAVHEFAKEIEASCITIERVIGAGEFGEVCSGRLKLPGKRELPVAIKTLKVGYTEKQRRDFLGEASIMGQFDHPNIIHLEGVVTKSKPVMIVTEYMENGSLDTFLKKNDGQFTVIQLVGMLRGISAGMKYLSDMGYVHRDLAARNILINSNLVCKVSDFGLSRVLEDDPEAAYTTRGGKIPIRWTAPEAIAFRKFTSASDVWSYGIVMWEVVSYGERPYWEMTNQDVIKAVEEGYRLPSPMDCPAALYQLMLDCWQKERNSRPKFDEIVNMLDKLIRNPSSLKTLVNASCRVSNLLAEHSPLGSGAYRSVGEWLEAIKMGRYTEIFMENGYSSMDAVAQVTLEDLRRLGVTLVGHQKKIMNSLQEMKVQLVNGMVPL

[7] = target: T3, General transcription and DNA repair factor IIH helicase subunit XPD (Homo sapiens, UniProt P18074); details: read-out: Kd apparent; k-562, colo 205, sk-n-be(2) and mv-4-11
T3 sequence (P18074 whole entry): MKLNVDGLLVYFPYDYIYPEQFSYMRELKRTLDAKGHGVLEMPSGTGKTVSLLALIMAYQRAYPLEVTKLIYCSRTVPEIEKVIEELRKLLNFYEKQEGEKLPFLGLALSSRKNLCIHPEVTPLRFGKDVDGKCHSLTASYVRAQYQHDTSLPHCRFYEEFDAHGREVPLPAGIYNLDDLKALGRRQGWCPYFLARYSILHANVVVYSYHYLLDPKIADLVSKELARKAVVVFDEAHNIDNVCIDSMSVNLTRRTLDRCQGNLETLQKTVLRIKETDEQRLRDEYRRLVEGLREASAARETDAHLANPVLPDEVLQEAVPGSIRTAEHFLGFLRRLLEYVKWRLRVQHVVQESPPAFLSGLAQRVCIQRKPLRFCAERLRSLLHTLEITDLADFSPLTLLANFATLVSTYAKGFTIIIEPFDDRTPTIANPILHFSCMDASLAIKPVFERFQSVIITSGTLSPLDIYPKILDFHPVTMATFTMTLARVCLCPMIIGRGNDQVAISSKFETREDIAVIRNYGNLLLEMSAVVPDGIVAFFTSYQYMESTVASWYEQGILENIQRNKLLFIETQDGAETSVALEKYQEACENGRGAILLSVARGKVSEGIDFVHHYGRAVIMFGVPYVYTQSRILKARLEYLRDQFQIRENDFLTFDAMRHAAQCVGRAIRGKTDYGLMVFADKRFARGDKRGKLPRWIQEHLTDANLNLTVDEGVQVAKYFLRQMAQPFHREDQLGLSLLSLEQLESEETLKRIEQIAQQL

[8] = target: T4, Septin-9 (Homo sapiens, UniProt Q9UHD8)
T4 sequence (Q9UHD8 whole entry): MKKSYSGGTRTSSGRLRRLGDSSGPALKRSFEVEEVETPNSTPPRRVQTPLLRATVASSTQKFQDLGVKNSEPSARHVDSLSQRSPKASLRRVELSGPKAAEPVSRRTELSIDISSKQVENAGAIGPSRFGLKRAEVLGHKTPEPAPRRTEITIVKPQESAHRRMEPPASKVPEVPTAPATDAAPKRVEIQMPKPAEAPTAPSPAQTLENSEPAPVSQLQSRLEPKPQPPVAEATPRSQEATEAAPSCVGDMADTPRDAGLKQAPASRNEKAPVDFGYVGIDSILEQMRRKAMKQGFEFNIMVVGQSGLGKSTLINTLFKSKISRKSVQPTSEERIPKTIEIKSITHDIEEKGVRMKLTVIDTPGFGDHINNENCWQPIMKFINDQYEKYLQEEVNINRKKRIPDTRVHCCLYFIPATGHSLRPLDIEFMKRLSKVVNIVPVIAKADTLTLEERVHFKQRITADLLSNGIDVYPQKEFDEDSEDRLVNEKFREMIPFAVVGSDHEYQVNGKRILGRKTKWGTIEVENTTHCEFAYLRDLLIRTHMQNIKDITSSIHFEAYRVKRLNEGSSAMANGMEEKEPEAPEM
Note: in the data inactive means no Kd found up to 30 µM.

Chain of Bone morphogenetic protein receptor type-1B (O00238 whole entry): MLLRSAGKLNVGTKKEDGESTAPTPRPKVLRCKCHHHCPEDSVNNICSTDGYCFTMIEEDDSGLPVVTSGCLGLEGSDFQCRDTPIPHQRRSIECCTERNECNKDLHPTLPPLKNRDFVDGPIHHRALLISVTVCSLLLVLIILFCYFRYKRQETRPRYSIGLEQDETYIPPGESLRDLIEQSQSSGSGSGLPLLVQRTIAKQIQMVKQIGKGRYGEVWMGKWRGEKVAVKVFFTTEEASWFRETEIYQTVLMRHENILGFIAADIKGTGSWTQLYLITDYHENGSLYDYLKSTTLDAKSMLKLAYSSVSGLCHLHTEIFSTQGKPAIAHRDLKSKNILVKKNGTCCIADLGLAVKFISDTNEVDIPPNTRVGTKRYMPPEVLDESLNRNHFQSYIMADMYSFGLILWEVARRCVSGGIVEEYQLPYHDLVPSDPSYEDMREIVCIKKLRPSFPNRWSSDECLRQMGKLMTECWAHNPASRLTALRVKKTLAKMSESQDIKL

Kd [1] | Kd [2] | Kd [3] | Kd [4] | Kd [5] | Kd [6] | Kd [7] | Kd [8] | SMILES
> 30 µM (inactive) | > 30 µM (inactive) | > 30 µM (inactive) | > 30 µM (inactive) | > 30 µM (inactive) | > 30 µM (inactive) | > 30 µM (inactive) | > 30 µM (inactive) | CCN1CCN(Cc2ccc(-c3cc4c(N[C@H](C)c5ccccc5)ncnc4[nH]3)cc2)CC1 [AEE-788]
> 30 µM (inactive) | > 30 µM (inactive) | > 30 µM (inactive) | > 30 µM (inactive) | > 30 µM (inactive) | > 30 µM (inactive) | > 30 µM (inactive) | > 30 µM (inactive) | Cn1ncc(Cl)c1-c1cc(C(=O)N[C@H](CN)Cc2cccc(F)c2)sc1Cl [AFURESERTIB]
> 30 µM (inactive) | > 30 µM (inactive) | > 30 µM (inactive) | > 30 µM (inactive) | > 30 µM (inactive) | > 30 µM (inactive) | > 30 µM (inactive) | > 30 µM (inactive) | CNS(=O)(=O)Nc1nccc(Cc2c(C)c3ccc(Oc4ncccn4)cc3oc2=O)c1F [AVUTOMETINIB]
> 30 µM (inactive) | > 30 µM (inactive) | > 30 µM (inactive) | > 30 µM (inactive) | > 30 µM (inactive) | > 30 µM (inactive) | > 30 µM (inactive) | > 30 µM (inactive) | COc1cc(CCc2cc(NC(=O)c3ccc(N4C[C@@H](C)N[C@@H](C)C4)cc3)n[nH]2)cc(OC)c1 [AZD-4547]
> 30 µM (inactive) | > 30 µM (inactive) | > 30 µM (inactive) | > 30 µM (inactive) | > 30 µM (inactive) | > 30 µM (inactive) | > 30 µM (inactive) | > 30 µM (inactive) | Cc1cc([C@@H](C)Nc2ccccc2C(=O)O)c2nc(N3CCOCC3)cc(=O)n2c1 [AZD-6482]
> 30 µM (inactive) | > 30 µM (inactive) | > 30 µM (inactive) | > 30 µM (inactive) | > 30 µM (inactive) | > 30 µM (inactive) | > 30 µM (inactive) | > 30 µM (inactive) | COc1ccc(-c2ccc3c(N4CCOC[C@@H]4C)nc(N4CCOC[C@@H]4C)nc3n2)cc1CO [AZD-8055]
> 30 µM (inactive) | > 30 µM (inactive) | > 30 µM (inactive) | > 30 µM (inactive) | > 30 µM (inactive) | > 30 µM (inactive) | > 30 µM (inactive) | > 30 µM (inactive) | C[C@@H](Nc1cc(F)cc(F)c1)c1cc(C(=O)N(C)C)cc2c(=O)cc(N3CCOCC3)oc12 [AZD-8186]
> 30 µM (inactive) | > 30 µM (inactive) | > 30 µM (inactive) | > 30 µM (inactive) | > 30 µM (inactive) | 0.345 µM | > 30 µM (inactive) | > 30 µM (inactive) | Cc1ccc(NC(=O)c2ccc(CN3CC[C@H](N(C)C)C3)c(C(F)(F)F)c2)cc1Nc1nccc(-c2cncnc2)n1 [BAFETINIB]
> 30 µM (inactive) | > 30 µM (inactive) | > 30 µM (inactive) | > 30 µM (inactive) | > 30 µM (inactive) | > 30 µM (inactive) | > 30 µM (inactive) | 0.084 µM | CCS(=O)(=O)N1CC(CC#N)(n2cc(-c3ncnc4[nH]ccc34)cn2)C1 [BARICITINIB]
> 30 µM (inactive) | > 30 µM (inactive) | > 30 µM (inactive) | > 30 µM (inactive) | > 30 µM (inactive) | > 30 µM (inactive) | > 30 µM (inactive) | > 30 µM (inactive) | Cc1cc2c(F)c(Oc3ncnn4cc(OC[C@@H](C)OC(=O)[C@H](C)N)c(C)c34)ccc2[nH]1 [BRIVANIB ALANINATE]
> 30 µM (inactive) | > 30 µM (inactive) | > 30 µM (inactive) | > 30 µM (inactive) | > 30 µM (inactive) | > 30 µM (inactive) | > 30 µM (inactive) | > 30 µM (inactive) | CNC(=O)c1ccc(-c2cnc3ncc(Cc4ccc5ncccc5c4)n3n2)cc1F [CAPMATINIB]
> 30 µM (inactive) | > 30 µM (inactive) | > 30 µM (inactive) | > 30 µM (inactive) | > 30 µM (inactive) | > 30 µM (inactive) |  | > 30 µM (inactive) | CCc1cnn2c(NCc3ccc[n+]([O-])c3)cc(N3CCCC[C@H]3CCO)nc12 [DINACICLIB]
> 30 µM (inactive) |  | > 30 µM (inactive) | > 30 µM (inactive) | > 30 µM (inactive) | > 30 µM (inactive) | > 30 µM (inactive) | > 30 µM (inactive) | CO[C@H]1C[C@@H]2CC[C@@H](C)[C@@](O)(O2)C(=O)C(=O)N2CCCC[C@H]2C(=O)O[C@H]([C@H](C)C[C@@H]2CC[C@@H](OCCO)[C@H](OC)C2)CC(=O)[C@H](C)/C=C(\C)[C@@H](O)[C@@H](OC)C(=O)[C@H](C)C[C@H](C)/C=C/C=C/C=C/1C [EVEROLIMUS]
> 30 µM (inactive) | > 30 µM (inactive) | > 30 µM (inactive) | > 30 µM (inactive) | > 30 µM (inactive) | 1.12 µM |  | > 30 µM (inactive) | CNC(=O)c1cc(Oc2ccc(NC(=O)Nc3ccc(Cl)c(C(F)(F)F)c3)c(F)c2)ccn1 [REGORAFENIB]
> 30 µM (inactive) | > 30 µM (inactive) | > 30 µM (inactive) | > 30 µM (inactive) | > 30 µM (inactive) | > 30 µM (inactive) |  | > 30 µM (inactive) | CC[C@@H]1C(=O)N(C)c2cnc(Nc3ccc(C(=O)N[C@H]4CC[C@H](N5CCN(CC6CC6)CC5)CC4)cc3OC)nc2N1C(C)C [VOLASERTIB]
> 30 µM (inactive) |  | > 30 µM (inactive) | > 30 µM (inactive) | > 30 µM (inactive) | > 30 µM (inactive) | > 30 µM (inactive) | > 30 µM (inactive) | CCn1c(=O)c(-c2cc[nH]n2)cc2c(C)nc(N)nc21 [VOXTALISIB]

SMILES | Kd [1] | Kd [2] | Kd [3] | Kd [4] | Kd [5] | Kd [6] | Kd [7] | Kd [8]
CN1CC[C@@H](c2c(O)cc(O)c3c(=O)cc(-c4ccccc4Cl)oc23)[C@@H]1CO | > 30 µM (inactive) | > 30 µM (inactive) | > 30 µM (inactive) | > 30 µM (inactive) | > 30 µM (inactive) | > 30 µM (inactive) | > 30 µM (inactive) | > 30 µM (inactive)
